This data set can be described thus: solvent given as SMILES.

The record followed here is the Deep4Chem optical property database.

The structures appear in SMILES notation.

As to `N#CC(C#N)=Cc1cn(-c2ccccc2)nc1-c1ccc([N+](=O)[O-])cc1`, the absorption maximum was determined as 346 nm (in C1CCOC1); 346 nm (in C1COCCO1); 346 nm (in CCO); 346 nm (in CCOC(C)=O); 347 nm (in CN(C)C=O); 345 nm (in CO). Besides, the absorption maximum is listed as 343 nm (in CS(C)=O), 356 nm (in Cc1ccccc1) and 352 nm (in ClC(Cl)Cl).

Where the note is “in ClCCl”, `C(=C\c1cc(/C=C/c2ccc(N(c3ccccc3)c3ccccc3)cc2)nc(/C=C/c2ccc(N(c3ccccc3)c3ccccc3)cc2)n1)/c1ccc(N(c2ccccc2)c2ccccc2)cc1` came in with an absorption maximum of 415 nm.

The compound `CCCCn1c(-c2ccc(-c3ccc(-c4ccc(-c5n(CCCC)c6cc(C)ccc6[n+]5CCCC)cc4)cc3)cc2)[n+](CCCC)c2ccc(C)cc21` registered an absorption maximum (in O) of 304 nm.

Take `c1ccc(N(c2ccccc2)c2ccc(-c3ccc(-c4ccc(N(c5ccccc5)c5ccccc5)cc4)c4nsnc34)cc2)cc1`: the absorption maximum (in ClCCl) amounted to 459 nm.

Compound `O=C(c1ccc(N2c3ccccc3Oc3ccccc32)cc1)c1ccc2sc3ccccc3c2c1` yielded an absorption maximum (in C1CCOC1) of 312 nm.

Under “in C1CCOC1”, `CCCCC1(CCCC)c2cc(C#Cc3ccc(/C=C(\C)c4ccccc4)cc3)ccc2-c2ccc(C#Cc3ccc(/C=C(\C)c4ccccc4)cc3)cc21` registered an absorption maximum of 365 nm.

In the case of `N#Cc1c(N2CCCCC2)cc(-c2ccc3c(c2)OCO3)c2c1-c1cccc3cccc-2c13`, the absorption maximum (in O) was 429 nm.

The compound `Nc1ccc(C#Cc2ccc3ccc4ccc(C#Cc5ccc(NS(=O)(=O)c6ccc([N+](=O)[O-])cc6[N+](=O)[O-])cc5)c5ccc2c3c45)cc1` came in with an absorption maximum (in CO) of 406 nm.

In the case of `CCCCCCCCCCOc1cc(OCCCCCCCCCC)cc(C2=C3C(C)=CC(/C=C/c4ccc(OC)cc4)=[N+]3[B-](F)(F)n3c(/C=C/c4ccc(OC)cc4)cc(C)c32)c1`, the absorption maximum (in ClC(Cl)Cl) was 645 nm.

Regarding `c1ccc(-c2nc(-c3cccc4ccccc34)n3ccccc23)cc1`, the absorption maximum by setting is: (in C1CCCCC1) 362 nm; (in CC#N) 355 nm; (in CO) 350 nm; (in ClCCl) 357 nm; (in O) 367 nm.

With `CCN(CC)c1ccc2cc(/C=C(\C#N)c3nc4ccccc4s3)c(=O)oc2c1`, the absorption maximum by setting is: (in C1COCCO1) 498 nm; (in CC#N) 506 nm; (in CCO) 511 nm; (in CCOC(C)=O) 504 nm; (in CN(C)C=O) 528 nm; (in CO) 512 nm. Further, the absorption maximum by setting is: (in CS(C)=O) 525 nm; (in Cc1ccccc1) 501 nm; (in ClCCl) 509 nm.

For the compound `CC(=O)O[B-]1(OC(C)=O)OC(/C=C/c2cccc3ccccc23)=CC(/C=C/c2cccc3ccccc23)=[O+]1`, the absorption maximum runs as follows: (in C1CCOC1) 464 nm; (in CC#N) 468 nm; (in CC(C)=O) 464 nm; (in CS(C)=O) 478 nm; (in Cc1ccccc1) 468 nm; (in ClC(Cl)Cl) 474 nm. This compound also gave an absorption maximum (in ClCCl) of 472 nm.

Compound `C[Si](C)(C)[Si](C)(C)c1ccc2cc3ccccc3cc2c1` came in with an absorption maximum (in C1CCCCC1) of 382.68 nm.

Regarding `C1=Cc2ccccc2C(=Cc2ccc(-c3cc(-c4ccc(C=C5c6ccccc6C=Cc6ccccc65)cc4)cc(-c4ccc(C=C5c6ccccc6C=Cc6ccccc65)cc4)c3)cc2)c2ccccc21`, the absorption maximum (in C1CCOC1) is listed as 325 nm.

In the case of `c1ccc(N(c2ccccc2)c2ccc(-c3ccc(-c4ccc(-c5ccc(-c6ccc(N(c7ccccc7)c7ccccc7)cc6)s5)c5nsnc45)s3)cc2)cc1`, the absorption maximum (in ClC(Cl)Cl) is reported as 530 nm.

`c1ccc2c(c1)nc1ccccn12` returned an absorption maximum (in CC#N) of 344 nm.

As for `COc1ccc(C2=[N+]3C(=Nc4c(-c5ccc6ccccc6c5)cc(-c5ccc(OC)cc5)n4[B-]3(F)F)C(c3ccc4ccccc4c3)=C2)cc1`, the absorption maximum (in ClCCl) was 704 nm.

As for `COC(=O)/C(C#N)=c1\s/c(=c2/s/c(=C(/C#N)C(=O)OC)c3cc(-c4ccc(OC)cc4)sc23)c2sc(-c3ccc(OC)cc3)cc12`, the absorption maximum (in Cc1ccccc1) came out at 628 nm.

`CC(C)c1cccc(C(C)C)c1-n1c(=O)c2ccc3c4ccc5c(=O)n(-c6c(C(C)C)cccc6C(C)C)c(=O)c6cc7c(-c8ccccn8)nc8cc(c1=O)c2c3c8c7c4c56`: the absorption maximum (in ClC(Cl)Cl) stood at 474 nm.

For `CC1=N/C(=C\c2ccncc2)C(=O)N1C`, the absorption maximum came to 357 nm (in C1COCCO1); 356 nm (in CC#N); 351 nm (in CCO); 353 nm (in CCOC(C)=O); 347 nm (in O).

The compound `c1ccc(N(c2ccccc2)c2ccc(-n3ccc4cc(-c5cccc6c5-c5ccccc5C6(c5ccccc5)c5ccccc5)ccc43)cc2)cc1` displayed an absorption maximum (in ClCCl) of 322 nm.

`CC(C)(C)c1ccc2c(c1)c1cc(C(C)(C)C)ccc1n2-c1ccc(C#Cc2ccc3c4ccc(C#Cc5ccc(/C=C(/C#N)C(=O)O)cc5)cc4n(-c4ccc(C(F)(F)F)cc4)c3c2)cc1` yielded an absorption maximum (in ClCCl) of 386 nm.

As to `CCCCCCCCCCCCCCCCCCN1C(=O)c2cccc3c(OCCN(C)C)ccc(c23)C1=O`, the absorption maximum (in CC#N) is reported as 363 nm; the absorption maximum (in CC(C)=O) turned out to be 362 nm; the absorption maximum (in CCO) was determined as 362 nm; the absorption maximum (in CCOC(C)=O) came to 363 nm; the absorption maximum (in CCOCC) is reported as 359 nm; the absorption maximum (in CN(C)C=O) turned out to be 364 nm. Moreover, the absorption maximum (in ClCCl) turned out to be 363 nm.

`CC(C)[Si](C#Cc1c2ccc(C(C)(C)C)cc2c(C#Cc2c3ccc(C(C)(C)C)cc3c(C#Cc3c4ccc(C(C)(C)C)cc4c(C#C[Si](C(C)C)(C(C)C)C(C)C)c4ccc(C(C)(C)C)cc34)c3ccc(C(C)(C)C)cc23)c2ccc(C(C)(C)C)cc12)(C(C)C)C(C)C`: the absorption maximum (in Cc1ccccc1) is given as 570 nm.

`CCCC1(CCC)c2cc(-c3ccco3)ccc2-c2ccc(-c3ccco3)cc21` came in with an absorption maximum (in C1CCCCC1) of 364 nm.

As for `N#Cc1c(/C=C/c2ccc(N(c3ccccc3)c3ccccc3)cc2)cc(-c2cccs2)cc1N1CCCCC1`, the absorption maximum (in CS(C)=O) was determined as 404 nm.

On to `Nc1ccc2c(c1)-c1ccccc1C2=O`, for which the absorption maximum came to 386 nm (in C1CCCCC1), 409 nm (in CC#N), 429 nm (in CCO) and 395 nm (in c1ccccc1).

Take `CSc1ccc2c(c1)N(CCCN1CCN(C)CN1C)c1ccccc1S2`: the absorption maximum (in CC#N) came to 316 nm, the absorption maximum (in CO) is on record as 314 nm and the absorption maximum (in O) was 312 nm.

For the setting “in C1COCCO1”, `COc1ccc(C2=C/C(=C\c3ccc(C#N)cc3)C(=O)O2)cc1OC` showed an absorption maximum of 428 nm.

In turn, `CCCCCCCCC1(CCCCCCCC)c2ccccc2-c2ccc(-c3nnc(-c4cccc(-n5c6ccc(C(C)(C)C)cc6c6cc(C(C)(C)C)ccc65)c4)o3)cc21` showed an absorption maximum (in Cc1ccccc1) of 345 nm.

For `CC(C)(C)c1ccc2c(c1)c1cc(C(C)(C)C)ccc1n2-c1cccc(-c2nc(-c3cccc(P(=O)(c4ccccc4)c4ccccc4)c3)nc(-c3cccc(P(=O)(c4ccccc4)c4ccccc4)c3)n2)c1`, the absorption maximum runs as follows: (in C1CCOC1) 343 nm; (in CC#N) 343 nm; (in CC(C)=O) 343 nm; (in CN(C)C=O) 343 nm; (in Cc1ccccc1) 343 nm; (in ClC(Cl)Cl) 343 nm. For the same compound, the absorption maximum (in ClCCl) worked out at 343 nm.

As for `COC(=O)C1=C(C(=O)OC)C2(c3ccccc3-c3ccccc32)[C@@H](c2ccc([N+](=O)[O-])cc2)C=C2c3cc(OC)c(OC)cc3CCN21`, the absorption maximum (in ClCCl) is given as 310 nm.

Take `CC(C)(C)c1ccc2ccc3cc(-c4ccc5c(-c6ccc7c(ccc8ccc(C(C)(C)C)cc87)c6)cc6c7cc(-c8ccc9c(ccc%10ccc(C(C)(C)C)cc%109)c8)ccc7c(-c7ccc8c(ccc9ccc(C(C)(C)C)cc98)c7)cc6c5c4)ccc3c2c1`: the absorption maximum (in ClCCl) was found to be 303 nm.

Compound `COc1ccc(C2C3=C(CCCC3=O)Nc3c2c(=O)oc2ccccc32)cc1` (configuration not stated) came in with an absorption maximum (in CS(C)=O) of 361 nm.

For the setting “in ClC(Cl)Cl”, `Cc1cc(C)c(C2=C3C=CC=[N+]3[B-]3(F)Oc4cc(O)cc5c6ccc(C)cc6c6cc2n3c6c45)c(C)c1` (configuration not stated) had an absorption maximum of 629 nm.

Where the note is “in Cc1ccccc1”, `FC(F)(F)c1ccc(-c2c3cccc4c5cccc6c(-c7ccc(C(F)(F)F)cc7)c7cccc8c9cccc2c9c(c34)c(c65)c78)cc1` yielded an absorption maximum of 683 nm.

Regarding `COc1cc2c(cc1OC)C1=C[C@H](c3ccc(C)cc3)C3(C(C#N)=C(C#N)N1CC2)c1ccccc1-c1ccccc13`, under “in ClCCl”, the absorption maximum amounted to 317 nm.

`CC1=CC(C)=[N+]2C1=C(c1ccc(O)cc1)c1c(C)cc(/C=C/C=C3/N(C)c4ccccc4C3(C)C)n1[B-]2(F)F` registered an absorption maximum (in O) of 650 nm.

Under “in ClC(Cl)Cl”, `CC(C)C[Si](C#Cc1c2c(=O)c3ccccc3c2c(C#C[Si](CC(C)C)(CC(C)C)CC(C)C)c2c(=O)c3ccccc3c12)(CC(C)C)CC(C)C` came in with an absorption maximum of 524 nm.

Compound `CCCCCCCCn1c2cc(/C=C/c3ccc(N(c4ccccc4)c4ccccc4)cc3)ccc2c2cc3c(cc21)c1ccc(/C=C/c2ccc(N(c4ccccc4)c4ccccc4)cc2)cc1n3CCCCCCCC` had an absorption maximum (in Cc1ccccc1) of 416 nm.

Regarding `CSc1sc(C(N)=O)c2nnn(C)c(=O)c12`, the absorption maximum is, setting by setting: (in C1CCOC1) 393 nm; (in CC#N) 394.5 nm; (in CCO) 397 nm; (in CN(C)C=O) 396.5 nm; (in CO) 397 nm; (in CS(C)=O) 398.5 nm.

As to `C1=CN2C[n+]3cccc(OCc4ccccc4)c3N=C2C(OCc2ccccc2)=C1`, the absorption maximum (in CO) is given as 450 nm.

As to `COc1cc2c(cc1F)c(=O)c1cc(F)c(OC)cc1n2-c1ccccc1`, the absorption maximum (in CCO) is reported as 378 nm.

The compound `CN(C)c1ccc(-c2nc3nccnc3n2-c2ccc(N(C)C)cc2)cc1` registered an absorption maximum (in CC#N) of 371 nm.

`CCC1=C(C)C2=C(/C=C/c3ccc(OC)cc3)c3c(C)c(CC)c(C)n3[B-](F)(F)[N+]2=C1C` displayed an absorption maximum (in ClCCl) of 529 nm.
